IC50 data for two compounds are collected here from ChEMBL document CHEMBL3886711, “Substituted tetrahydrocarbazole and carbazole carboxamide compounds” (2016).

Structures are written as SMILES. “And” between values parts separate entries of the source, which are not always exact repeats. Equal values may be shown once.

The assay has as its target Tyrosine-protein kinase JAK2 (Homo sapiens, UniProt O60674). The assay can be described thus: Jak2 Tyrosine Kinase Assay: The assays were performed in V-bottom 384-well plates. The final assay volume was 30 μl prepared from 15 μl additions of enzyme and substrates (fluoresceinated peptide and ATP) and test compounds in assay buffer (100 mM HEPES pH 7.4, 10 mM MgCl2, 25 mM beta-glycerolphosphate, […] Brij 35 surfactant and 4 mM DTT). The reaction was initiated by the combination of Jak2.

Tyrosine-protein kinase JAK2, sequence (O60674 whole entry): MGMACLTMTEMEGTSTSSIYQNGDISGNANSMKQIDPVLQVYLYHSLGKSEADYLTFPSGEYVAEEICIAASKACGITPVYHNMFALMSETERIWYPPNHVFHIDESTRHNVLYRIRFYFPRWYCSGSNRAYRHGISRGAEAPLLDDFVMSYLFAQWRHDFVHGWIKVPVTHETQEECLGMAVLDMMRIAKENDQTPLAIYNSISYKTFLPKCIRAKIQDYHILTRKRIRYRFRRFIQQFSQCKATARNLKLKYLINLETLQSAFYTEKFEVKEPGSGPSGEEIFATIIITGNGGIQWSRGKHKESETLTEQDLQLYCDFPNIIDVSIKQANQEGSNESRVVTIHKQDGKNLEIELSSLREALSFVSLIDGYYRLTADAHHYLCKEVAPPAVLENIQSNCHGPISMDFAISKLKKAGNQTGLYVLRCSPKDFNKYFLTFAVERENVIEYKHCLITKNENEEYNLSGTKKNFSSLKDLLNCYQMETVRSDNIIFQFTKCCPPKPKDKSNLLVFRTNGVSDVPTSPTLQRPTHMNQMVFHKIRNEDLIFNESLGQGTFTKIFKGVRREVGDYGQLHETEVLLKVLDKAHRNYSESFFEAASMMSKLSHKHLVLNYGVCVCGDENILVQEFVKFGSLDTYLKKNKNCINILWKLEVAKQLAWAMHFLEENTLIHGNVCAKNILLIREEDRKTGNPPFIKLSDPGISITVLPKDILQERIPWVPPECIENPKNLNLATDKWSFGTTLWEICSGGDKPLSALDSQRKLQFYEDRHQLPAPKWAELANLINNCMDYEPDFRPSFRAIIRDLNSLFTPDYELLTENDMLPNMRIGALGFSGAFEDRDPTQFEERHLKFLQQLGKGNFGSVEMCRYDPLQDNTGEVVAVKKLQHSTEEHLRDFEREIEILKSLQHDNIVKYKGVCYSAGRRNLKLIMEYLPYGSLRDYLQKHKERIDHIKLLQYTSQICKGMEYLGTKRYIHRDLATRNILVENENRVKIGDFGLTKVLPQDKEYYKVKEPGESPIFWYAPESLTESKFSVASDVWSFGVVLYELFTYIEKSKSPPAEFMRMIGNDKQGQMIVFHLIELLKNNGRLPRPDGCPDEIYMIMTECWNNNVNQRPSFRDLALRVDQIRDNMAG

In general, IC50 refers to the concentration that inhibits the measured activity by half. For `Cc1c(-c2c(Cl)cc(C(N)=O)c3[nH]c4cc(C(C)(C)O)ccc4c23)cccc1-n1c(=O)cc2c(Cl)cccn2c1=O`, the IC50 was 1400 nM and 970 nM.
In the case of `Cc1c(-c2c(F)cc(C(N)=O)c3[nH]c4cc(C(C)(C)O)ccc4c23)cccc1-n1c(=O)[nH]c2c(F)cccc2c1=O`, the IC50 was 1700 nM.
